US20230278972A1, “SUBSTITUTED HALOALKYL SULFONANILIDE HERBICIDES” (FMC Corporation, priority 2020, published 2023)

Experiments:
Assay type in all cases: in vivo
[1] = tested on: blackgrass (Alopecurus myosuroides); experiment: Test A1 preemergence, blackgrass
Summary of the method: (§1)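 Test compounds were formulated in a non-phytotoxic solvent mixture containing a surfactant. For preemergence, seeds sown in a loam soil–sand blend received a directed soil spray. For postemergence, potted plants in the same soil, 2 to 10 cm tall at the one- to two-leaf stage, were sprayed.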

[2] = tested on: Foxtail, Giant (giant foxtail, Setaria faberi); experiment: Test A1 postemergence, Foxtail, Giant; settings: Postemergence
Summary of the method: as §1

soybean (Glycine max) = experiment: Test A1 postemergence, soybean; settings: Postemergence
Summary of the method: as §1

[3] = tested on: wheat (Triticum aestivum); experiment: Test A1 preemergence, wheat
Summary of the method: as §1

[4] = tested on: wheat (Triticum aestivum); experiment: Test A1 postemergence, wheat; settings: Postemergence
Summary of the method: as §1

rice (Oryza sativa) = experiment: Test B1 flooded paddy test, rice; settings: 250 g ai/ha, Flood, applied to paddy water, 2-leaf stage, visually evaluated after 10 to 14 days
Source text: A dash (-) response means no test result.

corn (Zea mays) = experiment: Test A1 preemergence, corn
Summary of the method: as §1

[5] = 31 g ai/ha, 0 to 100 scale (0 no effect, 100 complete control)
[6] = 125 g ai/ha, 0 to 100 scale, 0 no effect, 100 complete control
[7] = 31 g ai/ha, 0 to 100 scale (0 no effect, 100 complete control), 10 days

Row | Structure (SMILES) | Plant response rating, Blackgrass [1, 5] | Plant response rating, Blackgrass [1, 6] | Plant response rating, Foxtail, Giant [2, 7] | Plant response rating, Foxtail, Giant ([2]; 125 g ai/ha, 0 to 100 scale) | Plant response rating, Soybean (soybean (Glycine max); [7]) | Plant response rating, Soybean (soybean (Glycine max); 125 g ai/ha, 0 to 100 scale) | Plant response rating, Wheat [3, 5] | Plant response rating, Wheat [3, 6] | Plant response rating, Wheat [4, 7] | Plant response rating, Wheat ([4]; 125 g ai/ha, 0 to 100 scale) | Plant response rating, Rice (0 to 100 scale, 0 is no effect, 100 is complete control) (rice (Oryza sativa)) | Plant response rating, Corn (corn (Zea mays); [5]) | Plant response rating, Corn (corn (Zea mays); [6])
1 | Cc1cc(C2CC2)c(NS(=O)(=O)C(F)(F)F)cc1C1=NOC2(CCCC2)C1 [Compound 313] | 0 | 0 | 0 | 0 | 0 | 20 | 0 | 0 | 0 | 0 | 0 | 0 | 0
2 | Cc1c(C(=O)N2CCC(F)CC2)cc(N(COC(=O)C(C)(C)C)S(=O)(=O)C(F)(F)F)c(C)c1C [Compound 361] | 0 | 0 | 10 | 50 | 50 | 70 | 0 | 0 | 0 | 20 | 35 | 0 | 0
3 | Cc1c(C(=O)N(C)C)cc(NS(=O)(=O)C(F)(F)F)c(Cl)c1F [Compound 320] | 0 | 0 | 0 | 40 | 20 | 70 | 10 | 50 | 0 | 30 | 0 | 0 | 30
4 | Cc1cc(C)c(N(C(=O)OC(C)C)S(=O)(=O)C(F)(F)F)cc1C1=NOC2CCCC12 (stereo not drawn) [Compound 295] | 0 | 0 | 0 | 10 | 20 | 50 | 0 | 30 | 20 | 70 | 0 | 0 | 0
5 | Cc1cc(C2CC2)c(C2=NOC3CCCC23)cc1NS(=O)(=O)C(F)(F)F (stereo not drawn) [Compound 307] | 0 | 50 | 20 | 40 | 10 | 50 | 10 | 80 | 30 | 40 | 0 | 0 | 0
6 | Cc1cc(C)c(N(COC(=O)C(C)(C)C)S(=O)(=O)C(F)(F)F)cc1C1=NOC2(C)CCCC12 (stereo not drawn) [Compound 341] | 0 | 30 | 0 | 20 | 40 | 50 | 0 | 0 | 0 | 70 | 55 | 0 | 0
7 | Cc1cc(C)c(N(COC(=O)C(C)(C)C)S(=O)(=O)C(F)(F)F)cc1C1=NOC2OCCC12 (stereo not drawn) [Compound 352] | 20 | 40 | 20 | 70 | 20 | 60 | 10 | 20 | 0 | 50 | 35 | 10 | 50
8 | CCC1ON=C(c2cc(NS(=O)(=O)C(F)(F)F)c(C)cc2C)C1CC (stereo not drawn) [Compound 343] | 60 | 90 | 0 | 30 | 40 | 60 | 10 | 90 | 30 | 60 | 40 | 10 | 60
9 | CCC1ON=C(c2cc(NS(=O)(=O)C(F)(F)F)c(C)cc2C)C1CC (stereo not drawn) [Compound 346] | 80 | 90 | 30 | 50 | 30 | 60 | 20 | 70 | 30 | 70 | 15 | 10 | 20
